The values below come from patent publication US10765621B2, “Extracts of halimione portulacoides and their application” (Cutech Srl, priority 2013, dated 2020).

One assay has as its system IL-1α. Nature of the assay: IL-1α release by ex-vivo human skin stimulated with 2% SDS (ELISA). Type of assay: cell-based. The protocol: In order to study the biological activity of the extracts from Halimione on the inflammatory response of skin to irritation, the experimental protocol summarized below was adopted: Ex-vivo skin samples (7 mm in diameter) were cultivated for 24 hours in 6-well plates (4 skin samples/well) with 2.5 ml/well of modified Williams E medium.
After 24 hours of culture the culture medium was renewed and the skin samples 2 to 6 received the irritant stimulus (2% SDS) through topical application of 4 μl of preparation on each skin sample. After 3 hours the stimulus was removed by means of cotton buds and then 4 μl of extract or dexamethasone were topically administered to the groups 3 to 6. Stimulus and lenitive treatments were diluted in 50% DMSO.
After a further 24 hours of cultivation, the culture media were separately collected from each group and the released IL-1α quantified via ELISA (BioLegend ELISAMAX cat. n. 434905).
Table 14 reports the average values of IL-1α obtained from the two medium samples (4 skin samples/well) collected for each experimental group.
A general note: ELISA stands for enzyme-linked immunosorbent assay.

The next assay concerns hair follicles. As to conditions: usual response, indicative; cited from earlier work.

In the case of `CCCCCCCCCCCCOS(=O)(=O)[O-].[Na+]` [SDS], in the assay with IL-1α (2% SDS stimulus without lenitive treatment (negative control), unstimulated control 1.3), the “IL-1α released in culture medium” value was 14.8 pg/mL.

Consider insulin, for which, in the assay with hair follicles, the “Hair follicle growth increment produced by well-known stimulants / positive controls” value was 10%.

For the compound `C[C@@H]1C[C@H]2[C@@H]3CCC4=CC(=O)C=C[C@]4(C)[C@@]3(F)[C@@H](O)C[C@]2(C)[C@@]1(O)C(=O)CO` [Dexam., dexamethasone], the “IL-1α released in culture medium” value with IL-1α (2% SDS stimulus, then lenitive treatment 10 mM (positive control), 24 h) was determined as 9.9 pg/mL.
